Results: patent US6281214A, “Biphenyl derivatives” (Eisai Co., Ltd, priority 1994, dated 2001)

Columns and labels:
Design in all cases: species or system SD rats
serotonin S2 receptor = biological target: T1, serotonin S2 receptor (Rattus norvegicus, UniProt P14842); experiment: serotonin S2 receptor binding test ([3H] Ketanserin Binding Test); settings: 1 nM [3H] Ketanserin, rat cortex, 37° C., 15 minutes
T1 construct: The receptor fraction prepared from the cortex was molten and suspended; from tissue; host or cells: cerebral cortex of SD rats (membrane fraction)
How it was run: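 Rat (SD, 6–8 weeks) cortical membranes in 50 mM Tris-HCl pH 7.4 were incubated with 1 nM [3H]ketanserin for 15 min at 37 °C, then filtered and counted. Nonspecific binding was defined with methysergide. IC50 was obtained by probit analysis and converted to Ki using the Scatchard-derived Kd.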

dopamine D2 receptor = biological target: T2, dopamine D2 receptor (Rattus norvegicus, UniProt P61169); experiment: dopamine D2 receptor binding test ([3H] Spiperone Binding Test); settings: 1 nM [3H] Spiperone, rat corpus striatum, room temperature, 60 minutes; read-out: Ki value, dopamine D2 receptor
T2 construct: the receptor fraction prepared from the corpus striatum was molten and suspended; from tissue; host or cells: corpus striatum of SD rats (membrane fraction)
How it was run: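 Rat (SD, 6–8 weeks) corpus striatum membranes in 50 mM Krebs-Tris pH 7.4 were incubated with 1 nM [3H]spiperone at room temperature for 60 minutes, with nonspecific binding defined by excess spiperone. IC50 came from probit analysis; Ki was derived using radioligand concentration and Scatchard Kd.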

adrenergic α1 receptor = adrenergic α1 receptor binding test ([3H] Prazosin Binding Test); settings: 1 nM [3H] Prazosin, rat cortex, room temperature, 60 minutes
How it was run: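 Rat (SD, 6-8 weeks) cerebral cortex membranes in 50 mM Tris-HCl pH 7.4 incubated with 1 nM [3H]prazosin for 60 min at room temperature; nonspecific binding defined with phentolamine. IC50 by probit method, converted to Ki using radioligand concentration and Scatchard-derived Kd.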

T1 sequence (P14842 whole entry): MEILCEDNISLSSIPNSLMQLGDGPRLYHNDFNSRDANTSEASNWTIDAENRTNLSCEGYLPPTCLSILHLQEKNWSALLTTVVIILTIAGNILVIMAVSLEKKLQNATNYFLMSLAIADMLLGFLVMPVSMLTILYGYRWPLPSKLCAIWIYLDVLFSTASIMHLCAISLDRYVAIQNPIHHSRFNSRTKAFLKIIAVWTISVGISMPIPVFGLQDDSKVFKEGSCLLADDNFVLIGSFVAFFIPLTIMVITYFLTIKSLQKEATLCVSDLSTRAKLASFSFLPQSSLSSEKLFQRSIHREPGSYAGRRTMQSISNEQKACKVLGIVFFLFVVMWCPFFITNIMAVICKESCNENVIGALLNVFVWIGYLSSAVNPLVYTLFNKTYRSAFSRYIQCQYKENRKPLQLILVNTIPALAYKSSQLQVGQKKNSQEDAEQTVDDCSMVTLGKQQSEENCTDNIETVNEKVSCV
T2 sequence (P61169 whole entry): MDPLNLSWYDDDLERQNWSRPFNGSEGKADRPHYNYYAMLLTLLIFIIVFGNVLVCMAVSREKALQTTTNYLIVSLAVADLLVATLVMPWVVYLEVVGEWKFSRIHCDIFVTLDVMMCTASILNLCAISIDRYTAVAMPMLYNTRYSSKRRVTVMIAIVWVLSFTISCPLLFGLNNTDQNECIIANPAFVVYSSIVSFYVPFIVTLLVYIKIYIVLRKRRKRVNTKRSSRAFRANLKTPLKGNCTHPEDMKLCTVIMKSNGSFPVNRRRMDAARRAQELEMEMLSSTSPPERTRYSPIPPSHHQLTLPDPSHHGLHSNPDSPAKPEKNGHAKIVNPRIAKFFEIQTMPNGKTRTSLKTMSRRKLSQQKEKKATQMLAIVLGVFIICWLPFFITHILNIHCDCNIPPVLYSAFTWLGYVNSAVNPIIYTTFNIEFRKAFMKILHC

Row | SMILES | Ki (serotonin S2 receptor) [nM] | Ki (dopamine D2 receptor) [nM] | Ki (adrenergic α1 receptor) [nM]
1 | CCC(=O)c1cc(N2CCN(CC)CC2)cc(-c2ccccc2)c1Cl [Example 140, 1-Ethyl-4-(3-phenyl-4-chloro-5-propionyl)phenylpiperazine] | 26.2 | 2.97 | 95.5
2 | C=CCCC(F)c1cc(N2CCN(CC)CC2)cc(-c2ccccc2)c1OC (stereo not drawn) [Example 46, 1-Ethyl-4-{3-phenyl-4-methoxy-5-[1-fluoro-(4-pentenyl)]}phenylpiperazine] | 2.16 | 9.78 | > 1000
3 | CCN1CCN(c2cc(-c3ccccc3)c(OC)c([S+]([O-])Cc3ccccc3)c2)CC1 (stereo not drawn) [Example 119, 1-Ethyl-4-(3-phenyl-4-methoxy-5-benzylsulfinyl)phenylpiperazine] | 34.9 | 35.8 | > 1000
4 | CCCS(=O)(=O)c1cc(N2CCN(CC)CC2)cc(-c2ccccc2)c1Cl [Example 191] | 3.76 | 1.65 | 21.2
5 | CCC(F)c1cc(N2CCN(CC)CC2)cc(-c2ccccc2)c1OC (stereo not drawn) [Example 88, 1-Ethyl-4-[3-phenyl-4-methoxy-5-(1-fluoropropyl)]phenylpiperazine] | 8.33 | 7.35 | 493
6 | CCN1CCN(c2cc(-c3ccccc3)c(OC)c(C3CCCO3)c2)CC1 (stereo not drawn) [Example 95, 1-Ethyl-4-[3-phenyl-4-methoxy-5-(2-tetrahydrofuranyl)]phenylpiperazine] | 40.9 | 104 | 279
7 | CCS(=O)(=O)c1cc(N2CCN(CCc3ccncc3)CC2)cc(-c2ccc(F)cc2)c1OC [Example 201, 1-[2-(4-Pyridyl)ethyl]-4-[3-(4-fluorophenyl)-4-methoxy-5-ethanesulfonyl]phenylpiperazine] | 3.17 | 19.7 | 12.9
8 | CCC(F)c1cc(N2CCN(CC)CC2)cc(-c2ccccc2CF)c1Cl (stereo not drawn) [Example 208, 1-Ethyl-4-[3-(2-fluoromethylphenyl)-4-chloro-5-(1-fluoropropyl)]phenylpiperazine] | 16.1 | 3.46 | 2380
9 | COc1c(C(=O)Cc2ccccc2)cc(N2CCN(CCO)CC2)cc1-c1ccccc1 [Example 128, 1-(2-Hydroxyethyl)-4-(3-phenyl-4-methoxy-5-phenylacetyl)phenylpiperazine] | 1.16 | 46.1 | > 1000
10 | CCCCS(=O)(=O)Nc1cc(N2CCN(C)CC2)cc(-c2ccccc2C)c1Cl [Example 30] | 2.24 | 0.86 | 92.5
11 | CCC(F)c1cc(N2CCN(CC)CC2)cc(-c2ccc(F)cc2F)c1Cl (stereo not drawn) [Example 144, 1-Ethyl-4-[3-(2,4-difluorophenyl)-4-chloro-5-(1-fluoropropyl)]phenylpiperazine] | 15.7 | 0.81 | 67.4
12 | CCCc1cc(N2CCN(CC)CC2)cc(-c2cccc(F)c2)c1OC [Example 101, 1-Ethyl-4-[3-(3-fluorophenyl)-4-methoxy-5-propyl]phenylpiperazine] | 262 | 118 | > 1000
13 | CCN1CCN(c2cc(CC(C)O)c(OC)c(-c3ccccc3)c2)CC1 (stereo not drawn) [Example 75, 1-Ethyl-4-[3-phenyl-4-methoxy-5-(2-hydroxypropyl)]phenylpiperazine] | 486 | > 1000 | > 1000
14 | CCCc1cc(N2CCN(CC)CC2)cc(-c2ccc(C(F)(F)F)cc2)c1OC [Example 85, 1-Ethyl-4-[3-(4-trifluoromethylphenyl)-4-methoxy-5-propyl]phenylpiperazine] | > 1000 | > 1000 | > 1000
15 | CCN1CCN(c2cc(-c3ccccc3)c(OC)c(C(O)c3ccccn3)c2)CC1 (stereo not drawn) [Example 112, 1-Ethyl-4-[3-phenyl-4-methoxy-5-(2-pyridyl)hydroxymethyl]phenylpiperazine] | 7 | 972 | > 1000
16 | CCN1CCN(c2cc(-c3ccccc3)c(OC(C)C)c(-c3ccccc3)c2)CC1 [Example 60, 1-Ethyl-4-(3,5-diphenyl-4-isopropxy)phenylpiperazine] | > 1000 | > 1000 | > 1000
17 | CCCS(=O)(=O)Nc1cc(N2CCN(CC)CC2)cc(-c2ccc(Cl)cc2Cl)c1Cl [Example 189, 1-Ethyl-4-[3-(2,4-dichlorophenyl)-4-chloro-5-propanesulfonyamino]phenylpiperazine] | > 100 | 1.51 | 32.5
18 | C=CCOCc1cc(N2CCN(CC)CC2)cc(-c2ccccc2C)c1Cl [Example 175, 1-Ethyl-4-[3-(2-tolyl)-4-chloro-5-allyloxymethyl]phenylpiperazine] | > 100 | 29.3 | > 1000
